Source: US20240425483A1, “INDOLINES AS PROTAC COMPOUNDS” (NeoPhore Limited, priority 2021, published 2024)

Target: T1, PMS2 protein (Homo sapiens, UniProt P54278)
T1 construct: host or cells: SW620 human colorectal carcinoma cells
T1 sequence (P54278 1-862): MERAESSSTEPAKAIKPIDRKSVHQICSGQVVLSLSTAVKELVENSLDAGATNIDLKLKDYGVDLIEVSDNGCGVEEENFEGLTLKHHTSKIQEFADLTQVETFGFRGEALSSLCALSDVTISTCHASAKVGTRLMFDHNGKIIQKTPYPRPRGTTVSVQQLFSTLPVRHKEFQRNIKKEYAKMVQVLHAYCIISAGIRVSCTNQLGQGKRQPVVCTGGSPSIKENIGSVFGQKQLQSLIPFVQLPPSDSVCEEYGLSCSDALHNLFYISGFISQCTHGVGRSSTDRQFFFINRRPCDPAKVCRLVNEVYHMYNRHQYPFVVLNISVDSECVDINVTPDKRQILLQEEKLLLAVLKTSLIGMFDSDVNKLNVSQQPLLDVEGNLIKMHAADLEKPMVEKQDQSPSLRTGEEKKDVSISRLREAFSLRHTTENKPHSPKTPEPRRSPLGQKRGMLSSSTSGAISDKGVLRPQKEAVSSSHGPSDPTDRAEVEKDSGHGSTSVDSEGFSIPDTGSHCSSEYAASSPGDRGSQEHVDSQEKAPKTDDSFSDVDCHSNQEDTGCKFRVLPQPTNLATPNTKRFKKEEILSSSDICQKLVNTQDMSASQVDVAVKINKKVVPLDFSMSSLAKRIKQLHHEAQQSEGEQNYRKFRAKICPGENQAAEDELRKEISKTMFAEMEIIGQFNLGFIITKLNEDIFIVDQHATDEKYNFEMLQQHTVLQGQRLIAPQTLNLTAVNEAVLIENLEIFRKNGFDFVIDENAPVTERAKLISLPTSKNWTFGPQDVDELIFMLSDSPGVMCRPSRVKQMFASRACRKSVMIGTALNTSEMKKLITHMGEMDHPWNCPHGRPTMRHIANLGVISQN
Experiment: PROTAC screening in SW620 human colorectal carcinoma cells, PMS2 protein level by JESS Western blot
Assay type: cell-based
Conditions: SW-620, 24 h, 1 uM compound
Protocol: PROTAC Screening Protocol Using SW620 Human Colorectal Carcinoma Cells
SVW620 cells (ATCC/[…]) were cultured in T75 Falcon flasks in culture media (F12/DMEM 1:1 media, 10% FCS, +L-G supplement). Cells were split twice a week, for a maximum of 6 weeks. Media was aspirated, and cells washed with 10 mL of sterile PBS. PBS was aspirated, and cells incubated with 1.5 mL TrypLE for up to 5 minutes at 37° C., 5% CO2. Once cells had detached, TrypLE was neutralised with 10 mL culture media and cells mixed 1:1 with Trypan blue and quantified using a Luna cell counter. Cells were then seeded into fresh T75 flasks with 1×10^6 cells and 10 mL culture media.
SW620 cells, cultured and counted as above, were used to seed 12 well plates at a density of 1.5×10^5 cells/well and incubated overnight at 37° C., 5% CO2. Test compounds were solubilized in DMSO to a stock concentration of 10 mM and serially diluted in DMSO and media to their test concentration; the final concentration of DMSO was 0.1% (v/v). Each concentration was tested in triplicate. SW620 cells were incubated with test compound for 24 hours at 37° C., 5% CO2. Media was aspirated from each well, and each well washed with 1 mL ice cold PBS. PBS was then aspirated, and 50 μL of cold lysis buffer (RIPA buffer supplemented with 1× protease inhibitors, Benzonase, MgCl) was added to each well; plates were then incubated on ice for 5 minutes. Cells were scraped using a pipette tip before being transferred to a fresh Eppendorf. Samples were spun at maximum speed in a benchtop centrifuge for 5 minutes at 4° C. and supernatant was then transferred to fresh tubes. Samples were stored at −80° C. until analysis.
Bicinchonininic acid (BCA) protein assay standards (2-0.125 mg/mL BSA) were prepared in advance. 6 μL of each standard was pipetted in duplicate into rows A and B of a 384-well assay plate. Test samples were diluted in lysis buffer (1:3-1:10) in a 384-well plate in duplicate. BCA Reagents were combined 50:1, Part A:Part B and 50 μL added to each well. Plates were incubated for 30 min at 37° C. in a plate incubator and read using a BCA protein 384 protocol on an EnSpire plate reader. Protein concentrations were calculated from a standard curve.
JESS Western Blot Protocol
Protein lysates were prepared using Protein Simple EZ standard pack reagents: 40 μL distilled H2O was added to a DTT tube (clear) and treated with 20 μL 10× sample buffer and 20 μL DTT to 5×MM tube (pink). 20 μL dH2O was added to biotinylated ladder tube (green).
Test samples were prepared by dilution to the required concentration (0.1 mg/mL) in 0.1× sample buffer. 1.25 μL 5× fluorescent master mix from the EZ standard pack was added to 5 μL sample for each lane to be loaded (e.g. 2.5 μL+10 μL if loading same sample into 2 wells). Samples were vortexed, briefly spun down and heated at 95° C. for 5 min in a PCR machine then vortexed again and briefly spun down before loading onto JESS cassettes (catalogue No: SM-W004) according to manufacturer's instructions (https://www.proteinsimple.com/technical_library.html?product=simplewestern&def_list=list). Protein expression was determined by the peak area of the target protein signal. Peak area of the target protein was normalised to peak area of the loading control (actin) and to DMSO control.

[1] = normalised to actin and DMSO control, Table A1

In the case of Cc1ncsc1-c1ccc(CNC(=O)[C@@H]2C[C@@H](O)CN2C(=O)[C@@H](NC(=O)CCCCCCC(=O)N2CCN(Cc3ccc4c(c3)CN(C(=O)c3c(O)cc(O)c(C)c3OCC3CCCCC3)C4)CC2)C(C)(C)C)cc1 [Example 27, (2S,4R)-1-[(2S)-2-[[8-[4-[[2-[2-(Cyclohexylmethoxy)-4,6-dihydroxy-3-methyl-benzoyl]isoindolin-5-yl]methyl]piperazin-1-yl]-8-oxo-octanoyl]amino]-3,3-dimethyl-butanoyl]-4-hydroxy-N-[[4-(4-methylthiazol-5-yl)phenyl]methyl]pyrrolidine-2-carboxamide], the remaining activity at 1 µM [1] is reported as < 10%.

In the case of Cc1c(O)cc(O)c(C(=O)N2Cc3ccc(CN4CCN(CCOCCOCCOCCOCCOCCOc5cccc6c5C(=O)N(C5CCC(=O)NC5=O)C6=O)CC4)cc3C2)c1OCc1ccccc1 (stereo not drawn) [Example 12, 4-((17-(4-((2-(2-(Benzyloxy)-4,6-dihydroxy-3-methylbenzoyl)isoindolin-5-yl)methyl)piperazin-1-yl)-3,6,9,12,15-pentaoxaheptadecyl)oxy)-2-(2,6-dioxopiperidin-3-yl)isoindoline-1,3-dione], the remaining activity at 1 µM [1] is reported as 10 to 25% and the remaining activity at 1 µM (upon further testing, Table A2) is reported as < 10%.

Compound Cc1c(O)cc(O)c(C(=O)N2Cc3ccc(CN4CCN(CCOCCOCCOCCOCCOc5cccc6c5C(=O)N(C5CCC(=O)NC5=O)C6=O)CC4)cc3C2)c1OCc1ccccc1 (stereo not drawn) [Example 11, 4-((14-(4-((2-(2-(Benzyloxy)-4,6-dihydroxy-3-methylbenzoyl)isoindolin-5-yl)methyl)piperazin-1-yl)-3,6,9,12-tetraoxatetradecyl)oxy)-2-(2,6-dioxopiperidin-3-yl)isoindoline-1,3-dione] has a remaining activity at 1 µM [1] of 10 to 25%.

Cc1c(O)cc(O)c(C(=O)N2Cc3ccc(CN4CCN(CCOCCOCCOCCNc5cccc6c5C(=O)N(C5CCC(=O)NC5=O)C6=O)CC4)cc3C2)c1OCC1CCCCC1 (stereo not drawn) [Example 5, 4-[2-[2-[2-[2-[4-[[2-[2-(Cyclohexylmethoxy)-4,6-dihydroxy-3-methyl-benzoyl]isoindolin-5-yl]methyl]piperazin-1-yl]ethoxy]ethoxy]ethoxy]ethylamino]-2-(2,6-dioxo-3-piperidyl)isoindoline-1,3-dione] showed a remaining activity at 1 µM [1] of 10 to 25%.

For Cc1c(O)cc(O)c(C(=O)N2Cc3ccc(CN4CCN(CCOCCOCCOc5cccc6c5C(=O)N(C5CCC(=O)NC5=O)C6=O)CC4)cc3C2)c1OCc1ccccc1 (stereo not drawn) [Example 10, 4-(2-(2-(2-(4-((2-(2-(Benzyloxy)-4,6-dihydroxy-3-methylbenzoyl)isoindolin-5-yl)methyl)piperazin-1-yl)ethoxy)ethoxy)ethoxy)-2-(2,6-dioxopiperidin-3-yl)isoindoline-1,3-dione], the remaining activity at 1 µM [1] was 25 to 50%.

Compound Cc1c(O)cc(O)c(C(=O)N2Cc3ccc(CN4CCN(CCOCCOCCOCCNc5cccc6c5CN(C5CCC(=O)NC5=O)C6=O)CC4)cc3C2)c1OCC1CCCCC1 (stereo not drawn) [Example 17, 3-(4-((2-(2-(2-(2-(4-((2-(2-(Cyclohexylmethoxy)-4,6-dihydroxy-3-methylbenzoyl)isoindolin-5-yl)methyl)piperazin-1-yl)ethoxy)ethoxy)ethoxy)ethyl)amino)-1-oxoisoindolin-2-yl)piperidine-2,6-dione] has a remaining activity at 1 µM [1] of 10 to 25%.

For Cc1c(O)cc(O)c(C(=O)N2Cc3ccc(CN4CCN(CCOCCOCCOCCNc5cccc6c5CN(C5CCC(=O)NC5=O)C6=O)CC4)cc3C2)c1OCc1ccccc1 (stereo not drawn) [Example 15, 3-(4-((2-(2-(2-(2-(4-((2-(2-(Benzyloxy)-4,6-dihydroxy-3-methylbenzoyl)isoindolin-5-yl)methyl)piperazin-1-yl)ethoxy)ethoxy)ethoxy)ethyl)amino)-1-oxoisoindolin-2-yl)piperidine-2,6-dione], the remaining activity at 1 µM [1] was 10 to 25%.

Work on Cc1c(O)cc(O)c(C(=O)N2Cc3ccc(CN4CCN(CCOCCOCCOCCNc5ccc6c(c5)C(=O)N(C5CCC(=O)NC5=O)C6=O)CC4)cc3C2)c1OCc1ccccc1 (stereo not drawn) [Example 13, 5-((2-(2-(2-(2-(4-((2-(2-(Benzyloxy)-4,6-dihydroxy-3-methylbenzoyl)isoindolin-5-yl)methyl)piperazin-1-yl)ethoxy)ethoxy)ethoxy)ethyl)amino)-2-(2,6-dioxopiperidin-3-yl)isoindoline-1,3-dione] yielded a remaining activity at 1 µM [1] of 10 to 25%.
